The target of assay [1] is T1, protein disulfide isomerase A1 (PDIA1) (Homo sapiens, UniProt P07237).
T1 construct: gene P4HB; full-length PDIA1 overexpressed in HEK293T (anti-myc detected) for labelling, also endogenous
Briefly: in-gel fluorescence after CuAAC, SKOV-3 wildtype versus PDIA1 knockout and HEK293T overexpression. The assay is classed as cell-based. The following applies: 500 nM, 1 h.

In assay [2] the target is T1, protein disulfide isomerase A1 (PDIA1). As to the kind of experiment: insulin reductase (insulin aggregation) assay. The assay is classed as biochemical. Particulars: covalent; a-site C53.

The text below walks through data of paper PMC11483914, “Appendage- and Scaffold-Diverse Electrophilic and Photoreactive Probes for Integrated Phenotypic Screening–Target Identification Campaigns via a Minimalist Bifunctional Isocyanide” (ACS Omega, 2024).

T1 sequence (P07237 18-508): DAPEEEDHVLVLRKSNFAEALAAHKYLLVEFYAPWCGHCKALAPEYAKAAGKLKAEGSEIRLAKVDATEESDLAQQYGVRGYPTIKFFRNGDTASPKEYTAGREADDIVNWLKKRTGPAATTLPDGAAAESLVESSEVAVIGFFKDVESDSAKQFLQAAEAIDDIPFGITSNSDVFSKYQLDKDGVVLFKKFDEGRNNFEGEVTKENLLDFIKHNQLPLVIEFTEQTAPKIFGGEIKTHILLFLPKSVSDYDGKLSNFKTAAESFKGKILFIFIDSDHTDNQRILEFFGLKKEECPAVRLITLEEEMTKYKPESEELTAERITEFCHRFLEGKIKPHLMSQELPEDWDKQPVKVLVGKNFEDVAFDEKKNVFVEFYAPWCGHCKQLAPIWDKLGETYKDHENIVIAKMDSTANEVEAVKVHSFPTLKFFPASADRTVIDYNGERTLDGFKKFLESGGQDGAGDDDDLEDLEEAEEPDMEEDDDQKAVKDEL

As to `C#CCN(CCNC(=O)C1(N(CC=C)C(=O)c2ccc(Cl)cc2)CCN(Cc2ccccc2)CC1)C(=O)CCl` [4a, FFSMP 4a], in assay [1], the covalent labelling entry is given as “confirming PDIA1 as a predominant protein target of biologically active FFSMP 4a”. Besides, in assay [2], the “inhibition of PDIA1 activity” value is listed as “FFSMP 4a was shown to inhibit PDIA1 at low μM concentrations”.
